The test system of experiment [1] is Setaria italica. Kind of experiment: […] against Setaria italica assessed as inhibition of seedling growth up to 300 ug/ml. Type of experiment: functional, organism-based.
The test system of another experiment is Meloidogyne incognita. Kind of experiment: Nematicidal activity against Meloidogyne incognita at 100 ug/ml. It is filed as functional, organism-based.
Experiment [2] has as its system Lepidium sativum. Kind of experiment: […] against Lepidium sativum assessed as inhibition of seedling growth up to 300 ug/ml. Type of experiment: functional, organism-based.
Experiment [3] deals with Lepidium sativum. Kind of experiment: […] against Lepidium sativum assessed as seed germination up to 300 ug/ml. It is filed as functional, organism-based.
The next experiment deals with Rhizomucor miehei. Put plainly: Antimicrobial activity against Mucor miehei assessed as inhibition of conidial germination after 16 hrs by inverted microscopic analysis. It is filed as functional.
For another experiment, the system named is Bacillus subtilis. Kind of experiment: Antimicrobial activity against Bacillus subtilis at 50 ug/disk by agar diffusion assay. To be noted: read-out: IZ. It is filed as functional.
Another experiment relates to Eremothecium coryli. Kind of experiment: Antimicrobial activity against Nematospora coryli at 50 ug/disk by agar diffusion assay. Type of experiment: functional. To be noted: read-out: IZ.
In another experiment the test system is Escherichia coli. Kind of experiment: Antimicrobial activity against Escherichia coli K-12 by serial dilution test. It is filed as functional.
Another experiment relates to Brevibacillus brevis. Put plainly: Antimicrobial activity against Bacillus brevis at 50 ug/disk by agar diffusion assay. To be noted: read-out: IZ. It is filed as functional. For orientation: A growth-free zone around the sample is the usual read-out of agar diffusion tests.
For experiment [4], the system named is Enterobacter cloacae subsp. dissolvens. Kind of experiment: Antimicrobial activity against Enterobacter dissolvens by serial dilution test. It is filed as functional.
In the next experiment the test system is Penicillium chrysogenum. Put plainly: Antimicrobial activity against Penicillium notatum assessed as inhibition of conidial germination after 16 hrs by inverted microscopic analysis. Type of experiment: functional.
The subject of a further experiment is Botrytis cinerea. Kind of experiment: Antimicrobial activity against Botrytis cinerea assessed as inhibition of conidial germination after 16 hrs by inverted microscopic analysis. It is filed as functional.
The test system of experiment [5] is Setaria italica. Kind of experiment: […] against Setaria italica assessed as seed germination up to 300 ug/ml. It is filed as functional, organism-based.
A further experiment deals with Proteus vulgaris. Put plainly: Antimicrobial activity against Proteus vulgaris by serial dilution test. It is filed as functional.
In a further experiment the test system is Caenorhabditis elegans. Kind of experiment: Nematicidal activity against Caenorhabditis elegans at 100 ug/ml. Type of experiment: functional, organism-based.
Another experiment has as its system Paecilomyces variotii. Put plainly: Antimicrobial activity against Paecilomyces variotii assessed as inhibition of conidial germination after 16 hrs by inverted microscopic analysis. Type of experiment: functional.
The nature of experiment [6]: Cytotoxicity against human HeLaS3 cells assessed as reduction in cell proliferation. To be noted: HeLa S3. Type of experiment: functional, cell-based.
The next experiment relates to Pyricularia grisea. Kind of experiment: Antimicrobial activity against Magnaporthe grisea assessed as inhibition of conidial germination after 16 hrs by inverted microscopic analysis. Type of experiment: functional.
The subject of the next experiment is Fusarium graminearum. Put plainly: Antimicrobial activity against Fusarium graminearum assessed as inhibition of conidial germination after 16 hrs by inverted microscopic analysis. Type of experiment: functional.
In the next experiment the test system is Phytophthora infestans. Put plainly: Antimicrobial activity against Phytophthora infestans assessed as inhibition of conidial germination after 16 hrs by inverted microscopic analysis. Type of experiment: functional.

In brackets after ≈: the same amount, converted by molar mass. Activity calls are given as the source filed them. No cut-off for these calls is given here. Where only a bound is given, the exact number is not on record here.

Consider `COc1cc(O)c2c(c1)C(=O)C1=C(C2=O)C(OC)OC(C)=C1` (configuration not stated) [ASCOMYCONE A], for which the outcome in the experiment on Setaria italica [1], in the experiment on Meloidogyne incognita, with Lepidium sativum [2], in the experiment with Lepidium sativum [3], in the experiment with Setaria italica [5] and in the experiment on Caenorhabditis elegans was inactive. The IC100 in the experiment with Rhizomucor miehei was 50 µg/mL; with Penicillium chrysogenum, above 50 µg/mL; with Botrytis cinerea, above 50 µg/mL; in the experiment on Paecilomyces variotii it was above 50 µg/mL. Further, the zone of inhibition at 50 µg/disc with Bacillus subtilis amounted to 11 mm; with Eremothecium coryli it was 0 mm; in the experiment on Brevibacillus brevis, 14 mm. Further, the minimal inhibitory concentration (MIC) (in the experiment with Escherichia coli; in [4]; in the experiment on Proteus vulgaris) was above 50 µg/mL in each case. Further, the IC50 (in general, the concentration that inhibits the measured activity by half) in experiment [6] is 5 µg/mL (≈ 16.5 µM).

In the case of `COc1cc(O)c2c(c1)C(=O)C1=C(C2=O)C(O)OC(C)=C1` (configuration not stated) [ASCOMYCONE B], the result in the experiment on Setaria italica [1], with Meloidogyne incognita, in the experiment on Lepidium sativum [2], in the experiment with Lepidium sativum [3], in the experiment on Setaria italica [5] and with Caenorhabditis elegans was inactive. The IC100 in the experiment with Pyricularia grisea is 1 µg/mL; in the experiment on Rhizomucor miehei, 10 µg/mL; in the experiment on Penicillium chrysogenum, 10 µg/mL; in the experiment on Botrytis cinerea, 5 µg/mL; in the experiment on Fusarium graminearum, 0.5 µg/mL; in the experiment on Phytophthora infestans, 5 µg/mL. Further, the IC100 with Paecilomyces variotii was above 50 µg/mL. The zone of inhibition at 50 µg/disc was 10 mm in the experiment with Bacillus subtilis, 13 mm with Eremothecium coryli and 11 mm in the experiment on Brevibacillus brevis. Further, the MIC (in the experiment on Escherichia coli; in experiment [4]; in the experiment on Proteus vulgaris) was above 50 µg/mL throughout. Moreover, the IC50 in [6] is 5 µg/mL (≈ 17.3 µM).

As to `CO/C=C1/C(=O)c2c(O)cc(OC)cc2C(=O)C1(O)CC(C)=O` (configuration not stated) [ASCOMYCONE C], the outcome in the experiment on Setaria italica [1], in the experiment with Meloidogyne incognita, in the experiment on Lepidium sativum [2], with Lepidium sativum [3], in the experiment with Setaria italica [5] and in the experiment on Caenorhabditis elegans was inactive. The IC100 in the experiment on Pyricularia grisea was 2.5 µg/mL; in the experiment with Rhizomucor miehei, above 50 µg/mL; in the experiment with Penicillium chrysogenum, 15 µg/mL; in the experiment with Botrytis cinerea, 50 µg/mL; with Fusarium graminearum, 2.5 µg/mL; in the experiment with Phytophthora infestans it was 5 µg/mL. Further, the IC100 in the experiment with Paecilomyces variotii was above 50 µg/mL. The zone of inhibition at 50 µg/disc in the experiment with Bacillus subtilis was 0 mm; with Eremothecium coryli, 11 mm; in the experiment with Brevibacillus brevis, 7 mm. Moreover, the MIC (against Escherichia coli; in [4]; against Proteus vulgaris) was above 50 µg/mL in each case. The half-maximal inhibitory concentration (IC50) in [6] is 50 µg/mL (≈ 156 µM).

The record behind these values is ChEMBL document CHEMBL1154148, “Ascomycones A-C, heptaketide metabolites from an unidentified ascomycete” (J Nat Prod, 2008).
